The text below walks through data of paper PMC11040665, “Aminothiazolone Inhibitors Disrupt the Protein–RNA Interaction of METTL16 and Modulate the m^6A RNA Modification” (JACS Au, 2024).

In assay [1] the target is T1, METTL16–MAT2A-hp1 mRNA interaction (METTL16 MTD 1–291, FAM-labeled MAT2A-hp1 RNA) (Homo sapiens, UniProt Q86W50).
T1 sequence (Q86W50 1-291): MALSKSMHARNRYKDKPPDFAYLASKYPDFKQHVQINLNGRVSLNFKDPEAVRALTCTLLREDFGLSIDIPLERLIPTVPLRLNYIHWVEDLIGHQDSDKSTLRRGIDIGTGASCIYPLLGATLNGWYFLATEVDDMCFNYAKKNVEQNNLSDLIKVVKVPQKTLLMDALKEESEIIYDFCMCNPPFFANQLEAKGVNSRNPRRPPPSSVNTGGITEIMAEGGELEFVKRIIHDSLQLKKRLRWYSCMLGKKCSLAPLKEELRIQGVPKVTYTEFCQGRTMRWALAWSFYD
The experiment in a line: Fluorescence polarization (FP) assay, disruption of METTL16 binding to FAM-MAT2A-hp1 RNA. Particulars: for IC50 class in the FP assay (MAT2A-hp1): 50 nM METTL16 MTD, 5 nM FAM-MAT2A-hp1, given as 'inactive'. (In general: Polarisation of emitted light reports the rotation of a fluorescent probe.)
Description: The binding of METTL16 to the FAM-labeled RNA probe formed a complex that led to a higher FP signal in comparison to that of the unbound RNA probe (Figure 2A). […] The Z-factor of 0.91 indicated the suitability of the assay condition (Figure S2D). […] In both FP assay and EMSA, a final concentration of 50 nM METTL16 and 5 nM FAM-MAT2A-hp was used. The METTL16 MTD (amino acids 1–291) was used in this study unless specifically indicated otherwise.
The FP assay was performed using 384-well black plates (Corning #4514) in a total reaction volume of 20 μL, with the final concentration of protein and RNA being 50 and 5 nM respectively. Compounds were diluted in FP buffer and incubated with protein for 30 min at room temperature, then FAM-MAT2A-hp1 RNA probe was added and the fluorescence polarization was measured using a TECAN Spark plate reader, under the excitation wavelength of 485 nm and the emission wavelength of 535 nm with bandwidth of 20 nm. 1% DMSO was used as the control. The inhibition was calculated with the equation: inhibition = 100%(Control – X)/(Control – Blank); Control: DMSO with protein and FAM-RNA; Blank: DMSO with FAM-RNA; X: compound with protein and FAM-RNA. The IC50 value was further determined using GraphPad Prism 9. […] The polarization was measured under an excitation wavelength of 630 nm and an emission wavelength of 680 nm with a bandwidth of 20 nm.

Assay [2] deals with T2, METTL16 MTD–U6 snRNA Δ interaction (Homo sapiens, UniProt Q86W50).
T2 construct: METTL16 MTD (1–291) was subcloned to pOPINB plasmid; His tag followed by HRV 3C cleavage site (N, cleaved yes); made in house; host or cells: E. coli Rosetta (DE3)
T2 sequence (Q86W50 1-291): T1 sequence (Q86W50 1-291)
Description: FP assay with Cy5-labeled U6 snRNA Δ. The format is binding.

The IC50 is the point on the concentration scale where inhibition reaches its midpoint. Higher therefore signals lower potency. As for `COc1ccc(S(=O)(=O)NC2=NC(=O)C(=C3C(=O)Nc4ccc(C)cc43)S2)cc1` [Compound 2], the IC50 in assay [1] came out at 24.3 ± 5.3 µM. On the same count and under the same terms, the same measure for `COc1ccc(S(=O)(=O)NC2=NC(=O)C(=C3C(=O)Nc4ccc(OC)cc43)S2)cc1` [Compound 3]: 23.8 ± 5.5 µM; for `COc1ccc(S(=O)(=O)NC2=NC(=O)C(=C3C(=O)Nc4ccc([N+](=O)[O-])cc43)S2)cc1` [Compound 4]: 8.2 ± 0.76 µM. Still for that read-out and setting: under `COc1ccc(S(=O)(=O)NC2=NC(=O)C(=C3C(=O)Nc4ccc(Br)cc43)S2)cc1` [Compound 8] stands 12.4 ± 2.8 µM. For `COc1ccc(S(=O)(=O)NC2=NC(=O)C(=C3C(=O)N(c4ccccc4)c4ccccc43)S2)cc1` [Compound 10], the “IC50 class in the FP assay (MAT2A-hp1)” value in assay [1] was “inactive”. Compound `COc1ccc(S(=O)(=O)NC2=NC(=O)C(=C3C(=O)Nc4c(F)cccc43)S2)cc1` [Compound 11] gave an IC50 in assay [1] of 28.9 ± 5.8 µM. In the case of `COc1ccc(S(=O)(=O)NC2=NC(=O)C(=C3C(=O)Nc4cc(F)ccc43)S2)cc1` [Compound 12], the “IC50 class in the FP assay (MAT2A-hp1)” value in assay [1] is “inactive”. `COc1ccc(S(=O)(=O)NC2=NC(=O)C(=C3C(=O)Nc4ccc(F)cc43)S2)cc1` [Compound 13]: the concentration for half-maximal inhibition (IC50) in assay [1] was 26.9 ± 3.5 µM. Still for that read-out and setting: under `COc1ccc(S(=O)(=O)NC2=NC(=O)C(=C3C(=O)Nc4c(Cl)cccc43)S2)cc1` [Compound 14] stands 57.6 ± 1.3 µM. Same read-out and setting: under `COc1ccc(S(=O)(=O)NC2=NC(=O)C(=C3C(=O)Nc4cc(Cl)ccc43)S2)cc1` [Compound 15] stands 26.4 ± 5 µM. `COc1ccc(S(=O)(=O)NC2=NC(=O)C(=C3C(=O)N(C)c4ccc(F)cc43)S2)cc1` [Compound 16] registered a concentration for half-maximal inhibition (IC50) in assay [1] of 15 ± 1 µM. With `COc1ccc(S(=O)(=O)NC2=NC(=O)C(=C3C(=O)N(C)c4cc(F)ccc43)S2)cc1` [Compound 17], the 50% inhibitory concentration (IC50) in assay [1] was 22.8 ± 2.3 µM. For the compound `COc1ccc(S(=O)(=O)NC2=NC(=O)C(=Cc3cc4ccccc4[nH]3)S2)cc1` [Compound 18], the IC50 in assay [1] came out at 23.2 ± 2.7 µM.

`Cc1ccc(S(=O)(=O)NC2=NC(=O)C(=C3C(=O)Nc4ccc(Cl)cc43)S2)cc1` [Compound 19] yielded a half-inhibitory concentration (IC50) in assay [1] of 13.5 ± 1.7 µM. Same read-out and setting: under `O=C1N=C(NS(=O)(=O)c2ccccc2)SC1=C1C(=O)Nc2ccc(Cl)cc21` [Compound 20] stands 15.7 ± 1.6 µM. As to `O=C1N=C(NS(=O)(=O)c2cccc([N+](=O)[O-])c2)SC1=C1C(=O)Nc2ccc(Cl)cc21` [Compound 22], in assay [1], the IC50 is 12 ± 2 µM.

On to `CC(C)(C)c1ccc(S(=O)(=O)NC2=NC(=O)C(=C3C(=O)Nc4ccc(Cl)cc43)S2)cc1` [Compound 23], for which the “IC50 class in the FP assay (MAT2A-hp1)” value in assay [1] is “inactive”. In assay [1], `O=C1N=C(NS(=O)(=O)c2ccc(F)cc2Cl)SC1=C1C(=O)Nc2ccc(Cl)cc21` [Compound 24] returned a half-maximal inhibitory concentration (IC50) of 14 ± 1.5 µM. As for `O=C1N=C(NS(=O)(=O)c2ccc(C3CCCCC3)cc2)SC1=C1C(=O)Nc2ccc(Cl)cc21` [Compound 25], in assay [1], the “IC50 class in the FP assay (MAT2A-hp1)” value was “inactive”. Still for that read-out and setting: the same measure for `O=C1N=C(NS(=O)(=O)c2ccc(-c3ccccc3)cc2)SC1=C1C(=O)Nc2ccc(Cl)cc21` [Compound 26]: “inactive”.

The compound `CS(=O)(=O)NC1=NC(=O)C(=C2C(=O)Nc3ccc(Cl)cc32)S1` [Compound 29] yielded an IC50 in assay [1] of 36.2 ± 2.8 µM. Same read-out and setting: the same measure for `O=C1N=C(NS(=O)(=O)c2ccc(C(F)(F)F)cc2)SC1=C1C(=O)Nc2ccc(Cl)cc21` [Compound 30]: 13.6 ± 3.6 µM; for `O=C1N=C(NS(=O)(=O)c2ccc3ccccc3c2)SC1=C1C(=O)Nc2ccc(Cl)cc21` [Compound 31]: 9.9 ± 1.3 µM. On the same count and under the same terms, under `O=C1N=C(NS(=O)(=O)c2ccc(F)cc2)SC1=C1C(=O)Nc2ccc(Cl)cc21` [Compound 33] stands 30.4 ± 10.5 µM. `Cc1ccc(C(=O)NC2=NC(=O)C(=C3C(=O)Nc4ccc(Cl)cc43)S2)cc1` [Compound 34]: in assay [1], the “IC50 class in the FP assay (MAT2A-hp1)” value is “inactive”. Turning to `COc1ccc(C(=O)NC2=NC(=O)C(=C3C(=O)Nc4ccc(Cl)cc43)S2)cc1` [Compound 35], the “IC50 class in the FP assay (MAT2A-hp1)” value in assay [1] was “inactive”. As to `COc1ccc(C(=O)NC2=NC(=O)C(=C3C(=O)Nc4ccc(Cl)cc43)S2)cc1OC` [Compound 36], the “IC50 class in the FP assay (MAT2A-hp1)” value in assay [1] was “inactive”.

As for `O=C1N=C(NC(=O)c2ccc(F)cc2)SC1=C1C(=O)Nc2ccc(Cl)cc21` [Compound 37], in assay [1], the “IC50 class in the FP assay (MAT2A-hp1)” value was “inactive”. As for `COc1ccc(S(=O)(=O)NC2=NC(=O)C(=C3C(=O)Nc4ccc(Cl)cc43)O2)cc1` [Compound 38], the “IC50 class in the FP assay (MAT2A-hp1)” value in assay [1] is “inactive”. In addition, the “inhibitory activity against METTL16 in the FP assay, in words” value in assay [1] (FAM-MAT2A-hp1 RNA) is “did not show inhibitory activity”. In assay [1], `COC(=O)c1ccc(S(=O)(=O)NC2=NC(=O)C(=C3C(=O)N(C)c4ccc(Br)cc43)S2)cc1` [Compound 48] gave a half-inhibitory concentration (IC50) of 29.4 ± 7.5 µM. Besides, the “fold decrease in inhibitory activity (FP assay)” value in assay [1] (42 compared to compound 4, methyl ester 48 compared to the carboxylic acid analogue) is recorded as 20 fold. For the compound `CN1C(=O)C(=C2SC(NS(=O)(=O)c3cccc(C(=O)O)c3)=NC2=O)c2cc(Br)ccc21` [Compound 49], the IC50 came out at 3 µM in assay [1] and 5.3 µM in assay [2].

Turning to `O=C1CSC(NS(=O)(=O)c2ccccc2)=N1` [Compound Ia], in assay [1], the IC50 was greater than 100 µM and the “IC50 class in the FP assay (MAT2A-hp1)” value was “inactive”.
